Measured values: ChEMBL document CHEMBL4406853 (Eur J Med Chem, 2019)
Non-standard residues stand in square brackets, D forms with d. Residues, ends and D or L forms follow the SMILES beside them. ξ: configuration not given here. ξP = O=C(O)C1CCCN1

Legend:
[1] = target: T1, Kappa-type opioid receptor (Homo sapiens, UniProt P41145); experiment: Binding affinity to kappa opioid receptor (unknown origin)
Mu-type opioid receptor [2] = target: T2, Mu-type opioid receptor (Homo sapiens, UniProt P35372); experiment: Displacement of [3H]DAMGO from mu opioid receptor (unknown origin) expressed in HEK293 cells after 1 hr by liquid scintillation counting; type: cell-based
T2 sequence (P35372 whole entry): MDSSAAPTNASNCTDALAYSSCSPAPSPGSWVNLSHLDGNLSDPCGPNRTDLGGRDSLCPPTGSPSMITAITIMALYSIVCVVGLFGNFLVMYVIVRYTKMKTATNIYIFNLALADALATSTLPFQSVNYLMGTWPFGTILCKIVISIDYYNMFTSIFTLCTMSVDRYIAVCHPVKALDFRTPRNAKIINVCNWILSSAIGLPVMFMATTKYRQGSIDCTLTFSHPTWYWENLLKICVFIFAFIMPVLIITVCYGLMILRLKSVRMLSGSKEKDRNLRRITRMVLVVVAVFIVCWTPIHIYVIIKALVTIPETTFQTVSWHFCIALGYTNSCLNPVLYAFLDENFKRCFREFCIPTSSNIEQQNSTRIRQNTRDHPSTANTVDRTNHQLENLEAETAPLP

Mus musculus [3] = experiment: Antinociceptive activity in iv dosed Kunming mouse; type: functional
Mus musculus [4] = experiment: Antinociceptive activity in icv dosed Kunming mouse; type: functional; conditions: central
[5] = target: T3, Kappa-type opioid receptor (Cavia porcellus, UniProt P41144); experiment: Inhibition of kappa opioid receptor in guinea pig brain membranes; type: cell membranes
T3 sequence (P41144 whole entry): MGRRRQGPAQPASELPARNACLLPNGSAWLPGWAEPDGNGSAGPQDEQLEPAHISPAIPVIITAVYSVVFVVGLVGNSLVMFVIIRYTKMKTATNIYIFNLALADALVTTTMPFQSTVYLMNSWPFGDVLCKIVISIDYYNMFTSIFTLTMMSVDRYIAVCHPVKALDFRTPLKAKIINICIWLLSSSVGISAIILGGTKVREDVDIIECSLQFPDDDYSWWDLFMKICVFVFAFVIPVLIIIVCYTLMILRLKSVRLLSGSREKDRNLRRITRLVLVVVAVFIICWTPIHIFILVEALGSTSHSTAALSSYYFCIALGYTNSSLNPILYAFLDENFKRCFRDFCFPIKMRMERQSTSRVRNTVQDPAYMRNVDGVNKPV

[6] = Agonist activity at delta opioid receptor in guinea pig brain membranes by [35S]-GTPgammaS binding assay; type: cell membranes, Cavia porcellus
Mu-type opioid receptor [7] = target: T4, Mu-type opioid receptor (Cavia porcellus, UniProt P97266); experiment: Inhibition of mu opioid receptor in guinea pig brain membranes; type: cell membranes
T4 sequence (P97266 whole entry): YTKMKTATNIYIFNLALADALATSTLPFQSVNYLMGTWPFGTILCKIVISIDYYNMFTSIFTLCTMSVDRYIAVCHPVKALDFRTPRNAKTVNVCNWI

[8] = Inhibition of delta opioid receptor in guinea pig brain membranes; type: cell membranes, Cavia porcellus
Mu-type opioid receptor [9] = target: T4, Mu-type opioid receptor; experiment: Agonist activity at mu opioid receptor in guinea pig brain membranes by [35S]-GTPgammaS binding assay; type: functional, cell membranes
[10] = target: T3, Kappa-type opioid receptor; experiment: Agonist activity at kappa opioid receptor in guinea pig brain membranes by [35S]-GTPgammaS binding assay; type: functional, cell membranes
[11] = target: Mitogen-activated protein kinase 1 (Homo sapiens, UniProt P28482); experiment: Inhibition of ERK2 phosphorylation (unknown origin)
Mitogen-activated protein kinase 1, sequence (P28482 whole entry): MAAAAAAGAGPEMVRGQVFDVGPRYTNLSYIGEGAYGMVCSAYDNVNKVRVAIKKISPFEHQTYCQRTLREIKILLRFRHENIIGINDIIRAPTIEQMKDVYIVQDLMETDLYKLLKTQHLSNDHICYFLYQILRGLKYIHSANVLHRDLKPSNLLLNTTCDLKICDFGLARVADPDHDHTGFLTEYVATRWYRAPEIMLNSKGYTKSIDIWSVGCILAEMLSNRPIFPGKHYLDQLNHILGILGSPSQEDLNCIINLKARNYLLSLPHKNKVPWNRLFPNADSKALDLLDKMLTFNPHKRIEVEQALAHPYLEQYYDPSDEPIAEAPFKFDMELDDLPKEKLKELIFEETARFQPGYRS

MAP kinase p38 = MAP kinase p38 (Homo sapiens, UniProt O15264+Q15759+Q16539+P53778); experiment: Inhibition of p38 phosphorylation (unknown origin); type: protein assay
[12] = target: Mitogen-activated protein kinase 3 (Homo sapiens, UniProt P27361); experiment: Inhibition of ERK1 phosphorylation (unknown origin)
Mitogen-activated protein kinase 3, sequence (P27361 whole entry): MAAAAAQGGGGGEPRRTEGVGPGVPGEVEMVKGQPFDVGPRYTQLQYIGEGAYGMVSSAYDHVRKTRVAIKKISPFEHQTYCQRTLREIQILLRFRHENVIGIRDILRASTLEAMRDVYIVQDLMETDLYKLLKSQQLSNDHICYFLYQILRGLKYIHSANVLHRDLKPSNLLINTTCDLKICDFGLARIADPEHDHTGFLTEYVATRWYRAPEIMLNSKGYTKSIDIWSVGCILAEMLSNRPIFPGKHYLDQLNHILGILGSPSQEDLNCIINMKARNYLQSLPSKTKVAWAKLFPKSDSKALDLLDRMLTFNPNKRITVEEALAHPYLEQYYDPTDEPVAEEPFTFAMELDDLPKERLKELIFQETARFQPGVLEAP

Mu-type opioid receptor [13] = target: T2, Mu-type opioid receptor; experiment: Inhibition of mu opioid receptor (unknown origin) expressed in HEK293 cells assessed as inhibition of forskolin-stimulated intracellular cAMP accumulation preincubated for 30 mins followed by forskolin-stimulation and measured after 60 mins; type: functional, cell-based
Mu-type opioid receptor [14] = target: T2, Mu-type opioid receptor; experiment: Inhibition of mu opioid receptor (unknown origin) expressed in HEK293 cells assessed as inhibition of forskolin-stimulated […] preincubated for 30 mins followed by forskolin-stimulation and measured after 60 mins; type: cell-based
[15] = target: T1, Kappa-type opioid receptor; experiment: Inhibition of kappa opioid receptor (unknown origin) relative to control
[16] = target: T1, Kappa-type opioid receptor; experiment: Inhibition of kappa opioid receptor (unknown origin)
[17] = target: T5, Delta-type opioid receptor (Homo sapiens, UniProt P41143); experiment: Inhibition of delta opioid receptor (unknown origin) by MVD assay
T5 sequence (P41143 whole entry): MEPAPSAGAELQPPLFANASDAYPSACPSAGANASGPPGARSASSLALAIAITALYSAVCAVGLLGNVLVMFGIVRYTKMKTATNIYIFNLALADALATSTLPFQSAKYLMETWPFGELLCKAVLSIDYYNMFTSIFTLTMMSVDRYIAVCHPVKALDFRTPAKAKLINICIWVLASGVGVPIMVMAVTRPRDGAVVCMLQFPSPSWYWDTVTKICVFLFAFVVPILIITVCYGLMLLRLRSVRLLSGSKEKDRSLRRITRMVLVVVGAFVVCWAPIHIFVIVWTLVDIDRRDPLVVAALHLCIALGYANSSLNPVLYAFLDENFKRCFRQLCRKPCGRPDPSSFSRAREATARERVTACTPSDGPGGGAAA

Homo sapiens [18] = species: Homo sapiens; experiment: Selectivity ratio of IC50 for mu opioid receptor (unknown origin) to IC50 for delta opioid receptor (unknown origin) by radioligand binding assay
Homo sapiens [19] = species: Homo sapiens; experiment: Selectivity ratio of IC50 for mu opioid receptor (unknown origin) to IC50 for delta opioid receptor (unknown origin) by MVD assay
Mu-type opioid receptor [20] = target: T2, Mu-type opioid receptor; experiment: Inhibition of mu opioid receptor (unknown origin)
[21] = target: T5, Delta-type opioid receptor; experiment: Inhibition of full length delta opioid receptor (unknown origin) assessed as increase in beta arrestin 2 recruitment
[22] = target: T5, Delta-type opioid receptor; experiment: Inhibition of delta opioid receptor (unknown origin) by radioligand binding assay
[23] = target: T5, Delta-type opioid receptor; experiment: Inhibition of full length delta opioid receptor (unknown origin) assessed as increase in beta arrestin 1 recruitment
[24] = target: T5, Delta-type opioid receptor; experiment: Inhibition of full length delta opioid receptor (unknown origin) assessed as inhibition of forskolin-stimulated intracellular cAMP accumulation; type: functional, cell-based
[25] = target: T1, Kappa-type opioid receptor; experiment: Agonist activity at kappa opioid receptor (unknown origin) assessed as reduction in beta arrestin recruitment relative to control; type: functional
[26] = target: T1, Kappa-type opioid receptor; experiment: Partial agonist activity at kappa opioid receptor (unknown origin) expressed in CHO cells by [35S]-GTPgammaS binding assay; type: functional, cell-based
Homo sapiens [27] = species: Homo sapiens; experiment: Selectivity ratio of Ki for mu opioid receptor (unknown origin) expressed in CHO cells to Ki for delta opioid receptor (unknown origin) expressed in CHO cells; type: cell-based
[28] = target: T1, Kappa-type opioid receptor; experiment: Inhibition of kappa opioid receptor (unknown origin) expressed in CHO cells by [35S]-GTPgammaS binding assay; type: functional, cell-based
Mu-type opioid receptor [29] = target: T2, Mu-type opioid receptor; experiment: Partial agonist activity at mu opioid receptor (unknown origin) expressed in CHO cells by [35S]-GTPgammaS binding assay; type: functional, cell-based
[30] = target: T1, Kappa-type opioid receptor; experiment: Partial agonist activity at kappa opioid receptor (unknown origin) expressed in CHO cells by [35S]-GTPgammaS binding assay relative to control; type: functional, cell-based
[31] = target: T1, Kappa-type opioid receptor; experiment: Agonist activity at kappa opioid receptor (unknown origin) assessed as reduction in beta arrestin recruitment; type: functional
Mus musculus [32] = experiment: Antinociceptive activity in icv dosed mouse; type: functional
[33] = target: T1, Kappa-type opioid receptor; experiment: Inhibition of kappa opioid receptor (unknown origin) by [35S]-GTPgammaS binding assay; type: functional

T1 sequence (P41145 whole entry): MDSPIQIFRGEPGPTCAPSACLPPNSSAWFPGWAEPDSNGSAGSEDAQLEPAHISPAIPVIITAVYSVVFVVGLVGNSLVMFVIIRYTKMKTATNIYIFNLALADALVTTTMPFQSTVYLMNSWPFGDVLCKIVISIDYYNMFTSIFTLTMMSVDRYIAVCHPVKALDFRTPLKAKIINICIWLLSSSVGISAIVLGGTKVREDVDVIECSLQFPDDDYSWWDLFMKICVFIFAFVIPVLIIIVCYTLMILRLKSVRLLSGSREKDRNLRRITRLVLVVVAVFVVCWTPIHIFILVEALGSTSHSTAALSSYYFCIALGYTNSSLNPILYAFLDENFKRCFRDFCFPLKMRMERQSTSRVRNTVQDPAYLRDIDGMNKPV

## COC(=O)[C@@H]1C[C@H](OC(=O)CSC#N)C(=O)[C@H]2[C@@]1(C)CC[C@H]1C(=O)O[C@H](c3ccoc3)C[C@]21C [22-THIOCYANATOSALVINORIN A]
[1]
  Kd: 0.00059 µM

## C=C(C(N)=O)C(NC(=O)[C@H](Cc1ccccc1)NC(=O)[C@@H](C)N(C)C(=O)C(N)Cc1c(C)cc(O)cc1C)c1ccco1 (stereo partly specified)
Mu-type opioid receptor [2]
  EC50: 1.77 to 5.15 pM
  Ki: 0.0109 to 0.0511 nM
Mus musculus [3]
  ED50: 0.000489 µmol/kg
Mus musculus [4]
  ED50: 0.0226 µmol/kg

## CC[C@@H]1CN2CC[C@@]3(O)C(=Nc4cccc(OC)c43)[C@@H]2C[C@@H]1/C(=C\OC)C(=O)OC
[5]
  Ki: > 1 µM
[6]
  EC50: 0.053 µM
Mu-type opioid receptor [7]
  Ki: 0.0072 µM
[8]
  Ki: 0.06 µM
Mu-type opioid receptor [9]
  EC50: 0.053 µM
[10]
  EC50: 0.053 µM

## CN(C(=O)/C=C/c1ccoc1)[C@@H]1CC[C@@]2(O)[C@H]3Cc4ccc(O)c5c4[C@@]2(CCN3CC2CC2)[C@H]1O5 [NALFURAFINE]
[11]
  EC50: 0.00055 µM
MAP kinase p38
  EC50: 0.0052 µM
[12]
  EC50: 0.00055 µM

## CN(C)[C@H](CNC(=O)NCCc1ccsc1)Cc1ccc2ccccc2c1
Mu-type opioid receptor [13]
  EC50: 0.0524 to 0.243 µM
Mu-type opioid receptor [14]
  EC50: 0.0524 to 0.243 µM

## C=C(C(N)=O)C(NC(=O)[C@H](Cc1c[nH]c2ccccc12)NC(=O)[C@@H](C)N(C)C(=O)C(N)Cc1c(C)cc(O)cc1C)c1ccccc1 (stereo partly specified)
Mu-type opioid receptor [2]
  EC50: 1.77 to 5.15 pM
  Ki: 0.0109 to 0.0511 nM

## C[C@@H](Cc1ccsc1)NC(=O)NC[C@H](Cc1ccc2ccccc2c1)N(C)C
Mu-type opioid receptor [13]
  EC50: 0.0524 to 0.0911 µM
Mu-type opioid receptor [14]
  EC50: 0.0524 to 0.0911 µM

## COC(=O)[C@@H]1C[C@H](OC(=O)Cl)C(=O)[C@H]2[C@@]1(C)CC[C@H]1C(=O)O[C@H](c3ccoc3)C[C@]21C
[15]
  Emax: 85%
[1]
  Kd: 0.0021 µM
[16]
  EC50: 0.00019 µM

## C[C@H](Cc1ccsc1)NC(=O)NC[C@H](Cc1ccc2ccccc2c1)N(C)C
Mu-type opioid receptor [13]
  EC50: 0.0524 to 0.0911 µM
Mu-type opioid receptor [14]
  EC50: 0.0524 to 0.0911 µM

## CC(C)C[C@H](NC(=O)C1CCCN1C(=O)[C@@H](N)Cc1ccc(O)cc1)C(=O)N[C@@H](CC(=O)O)C(=O)N[C@@H](CC(C)C)C(=O)N[C@@H](Cc1ccccc1)C(=O)O (stereo partly specified) (H-Y[ξP]LDLF-OH)
[17]
  IC50: 24.4 µM
Homo sapiens [18]
  Ratio IC50: 500
Homo sapiens [19]
  Ratio IC50: 500
Mu-type opioid receptor [20]
  IC50: > 2000 µM
[21]
  EC50: 7.94 µM
[22]
  IC50: 0.9 µM
[23]
  EC50: 7.94 µM
[24]
  IC50: 1.58 µM

## C=C(C(N)=O)C(NC(=O)[C@H](Cc1c[nH]c2ccccc12)NC(=O)[C@@H](C)N(C)C(=O)C(N)Cc1c(C)cc(O)cc1C)c1ccco1 (stereo partly specified)
Mu-type opioid receptor [2]
  EC50: 1.77 to 5.15 pM
  Ki: 0.0109 to 0.0511 nM
Mus musculus [3]
  ED50: 0.000382 µmol/kg
Mus musculus [4]
  ED50: 0.0152 µmol/kg

## CCC1CC2CC3c4[nH]c5ccc(O)cc5c4CCN(C2)C13 (stereo unspecified)
[25]
  Emax: 13%
[26]
  EC50: 8.75 µM
Homo sapiens [27]
  Ratio Ki: 2
[28]
  Ki: 0.72 µM
Mu-type opioid receptor [29]
  EC50: 16 µM
[30]
  Emax: 72%
[31]
  EC50: 0.11 µM

## Oc1cccc(CCN(CCc2ccccc2)CC2CC2)c1
Mus musculus [32]
  ED50: 6.02 nmol
[33]
  EC50: 0.0367 µM
